Values of other authors, collected in patent US9155756B2, “Method for the prevention and treatment of sepsis” (Universiteit Maastricht, priority 2011, dated 2015).

How the values were obtained:
[1] = test system: patients with septic shock; conditions: low dose for 5-7 days
[2] = test system: patients with severe sepsis

Molecule	Clinical outcome [1]	Number needed to treat (NNT) for reduced mortality ([2]; patients with multi-organ failure, large randomized clinical trials)	Mortality ([2]; severe sepsis, decreased from about 31%)
C[C@]12CCC(=O)C=C1CC[C@@H]1[C@@H]2[C@@H](O)C[C@@]2(C)[C@H]1CC[C@]2(O)C(=O)CO [hydrocortisone]	improved outcomes	–	–
drotrecogin alfa	–	16	about 25%
